From PMC5295233, “Biochemical and Structural Insights into a Novel Thermostable β-1,3-Galactosidase from Marinomonas sp. BSi20414” (Marine Drugs, 2017) come the findings set out here.

This assay relates to T1, MaBGA (β-galactosidase from Marinomonas sp. BSi20414).
T1 construct: native enzyme purified from the wild-type strain (ammonium sulfate, HiTrap DEAE FF); GH42; catalytic Glu142 and Glu314; no tag
Nature of the assay: release of o-nitrophenol at […] nm, nonlinear Michaelis-Menten fit. Type of assay: biochemical. To be noted: apparent Km; 50 mM PBS pH 7.0 (standard assay); ONPG 0.1-19 mM; temperature not given.

With `O=[N+]([O-])c1ccccc1O[C@@H]1O[C@H](CO)[C@H](O)[C@H](O)[C@H]1O` [ONPG, o-nitrophenyl-β-D-galactopyranoside], the Km was found to be 14.2 mM.

The term Km denotes the concentration of substrate that gives half-maximal velocity.
